Experimental data reported in the NIST ThermoML archive (doi:10.1016/j.jct.2004.11.009).
Numbers after ± are expanded uncertainties.

Experiment: xn = mol fraction of the nth substance listed
Settings: 101.33 kPa, Liquid

Cc1cccnc1 [3-methylpyridine] + O
Settings | mass density [kg/m3] | viscosity [mPa·s]
293.15 K, x1 = 0.0101 | 998 ± 0.6 | 1.149 ± 0.019
293.15 K, x1 = 0.0211 | 997.8 ± 0.6 | 1.301 ± 0.022
293.15 K, x1 = 0.033 | 997.5 ± 0.6 | 1.467 ± 0.024
293.15 K, x1 = 0.0462 | 997.2 ± 0.6 | 1.626 ± 0.027
293.15 K, x1 = 0.114 | 995.4 ± 0.6 | 2.301 ± 0.037
293.15 K, x1 = 0.225 | 992.1 ± 0.6 | 2.914 ± 0.046
293.15 K, x1 = 0.36 | 986.9 ± 0.6 | 3.04 ± 0.048
293.15 K, x1 = 0.436 | 983.1 ± 0.6 | 2.9 ± 0.046
293.15 K, x1 = 0.5 | 979.7 ± 0.6 | 2.733 ± 0.044
293.15 K, x1 = 0.6 | 974.3 ± 0.6 | 2.386 ± 0.038
293.15 K, x1 = 0.7 | 969 ± 0.6 | 2.021 ± 0.032
293.15 K, x1 = 0.8 | 964.1 ± 0.6 | 1.655 ± 0.027
293.15 K, x1 = 0.9 | 959.8 ± 0.6 | 1.31 ± 0.021
293.15 K, x1 = 1 | 956 ± 0.6 | 0.9459 ± 0.016
303.15 K, x1 = 0.0101 | 995.1 ± 0.7 | 0.913 ± 0.015
303.15 K, x1 = 0.0211 | 994.4 ± 0.7 | 1.021 ± 0.017
303.15 K, x1 = 0.033 | 993.7 ± 0.7 | 1.133 ± 0.019
303.15 K, x1 = 0.0462 | 992.9 ± 0.7 | 1.255 ± 0.021
303.15 K, x1 = 0.114 | 989.3 ± 0.7 | 1.705 ± 0.028
303.15 K, x1 = 0.225 | 984 ± 0.7 | 2.022 ± 0.033
303.15 K, x1 = 0.36 | 977.8 ± 0.6 | 2.034 ± 0.033
303.15 K, x1 = 0.436 | 973.6 ± 0.6 | 1.938 ± 0.031
303.15 K, x1 = 0.5 | 970.2 ± 0.6 | 1.83 ± 0.03
303.15 K, x1 = 0.6 | 964.5 ± 0.6 | 1.638 ± 0.027
303.15 K, x1 = 0.7 | 959.4 ± 0.6 | 1.449 ± 0.024
303.15 K, x1 = 0.8 | 954.6 ± 0.6 | 1.255 ± 0.021
303.15 K, x1 = 0.9 | 950.3 ± 0.6 | 1.049 ± 0.017
303.15 K, x1 = 1 | 946.6 ± 0.6 | 0.8318 ± 0.014
313.15 K, x1 = 0.0101 | 991.2 ± 0.7 | 0.731 ± 0.013
313.15 K, x1 = 0.0211 | 990.2 ± 0.7 | 0.8139 ± 0.014
313.15 K, x1 = 0.033 | 989.2 ± 0.7 | 0.8959 ± 0.015
313.15 K, x1 = 0.0462 | 988 ± 0.7 | 0.98 ± 0.016
313.15 K, x1 = 0.114 | 982.9 ± 0.7 | 1.307 ± 0.022
313.15 K, x1 = 0.225 | 976.4 ± 0.7 | 1.572 ± 0.026
313.15 K, x1 = 0.36 | 968.9 ± 0.7 | 1.588 ± 0.026
313.15 K, x1 = 0.436 | 964.7 ± 0.7 | 1.511 ± 0.025
313.15 K, x1 = 0.5 | 961 ± 0.7 | 1.43 ± 0.023
313.15 K, x1 = 0.6 | 955.3 ± 0.7 | 1.286 ± 0.021
313.15 K, x1 = 0.7 | 950.2 ± 0.7 | 1.149 ± 0.019
313.15 K, x1 = 0.8 | 945.5 ± 0.6 | 1.018 ± 0.017
313.15 K, x1 = 0.9 | 941.3 ± 0.6 | 0.884 ± 0.015
313.15 K, x1 = 1 | 937.7 ± 0.6 | 0.7352 ± 0.012
323.15 K, x1 = 0.0101 | 986.6 ± 0.7 | 0.6101 ± 0.011
323.15 K, x1 = 0.0211 | 985.2 ± 0.7 | 0.6693 ± 0.011
323.15 K, x1 = 0.033 | 983.7 ± 0.7 | 0.7356 ± 0.013
323.15 K, x1 = 0.0462 | 982.3 ± 0.7 | 0.7921 ± 0.013
323.15 K, x1 = 0.114 | 975.6 ± 0.7 | 1.048 ± 0.017
323.15 K, x1 = 0.225 | 967.7 ± 0.7 | 1.23 ± 0.02
323.15 K, x1 = 0.36 | 959.4 ± 0.7 | 1.255 ± 0.021
323.15 K, x1 = 0.436 | 954.9 ± 0.7 | 1.207 ± 0.02
323.15 K, x1 = 0.5 | 951.2 ± 0.7 | 1.162 ± 0.019
323.15 K, x1 = 0.6 | 945.5 ± 0.7 | 1.071 ± 0.018
323.15 K, x1 = 0.7 | 940.5 ± 0.7 | 0.9777 ± 0.016
323.15 K, x1 = 0.8 | 935.9 ± 0.7 | 0.8686 ± 0.015
323.15 K, x1 = 0.9 | 931.8 ± 0.7 | 0.7536 ± 0.013
323.15 K, x1 = 1 | 928.3 ± 0.7 | 0.6565 ± 0.011
333.15 K, x1 = 0.0101 | 981.4 ± 0.8 | 0.5203 ± 0.0092
333.15 K, x1 = 0.0211 | 979.6 ± 0.8 | 0.5735 ± 0.01
333.15 K, x1 = 0.033 | 977.7 ± 0.8 | 0.6346 ± 0.011
333.15 K, x1 = 0.0462 | 975.8 ± 0.7 | 0.6624 ± 0.011
333.15 K, x1 = 0.114 | 967.9 ± 0.7 | 0.866 ± 0.015
333.15 K, x1 = 0.225 | 958.7 ± 0.7 | 1.015 ± 0.017
333.15 K, x1 = 0.36 | 950 ± 0.7 | 1.042 ± 0.017
333.15 K, x1 = 0.436 | 945.4 ± 0.7 | 1.004 ± 0.017
333.15 K, x1 = 0.5 | 941.8 ± 0.7 | 0.9701 ± 0.016
333.15 K, x1 = 0.6 | 936.1 ± 0.7 | 0.8988 ± 0.015
333.15 K, x1 = 0.7 | 931.1 ± 0.7 | 0.8305 ± 0.014
333.15 K, x1 = 0.8 | 926.7 ± 0.7 | 0.7562 ± 0.013
333.15 K, x1 = 0.9 | 922.7 ± 0.7 | 0.6699 ± 0.011
333.15 K, x1 = 1 | 919.3 ± 0.7 | 0.5936 ± 0.01
343.15 K, x1 = 0.0101 | 975.8 ± 0.8 | 0.4504 ± 0.0081
343.15 K, x1 = 0.0211 | 973.7 ± 0.8 | 0.4888 ± 0.0087
343.15 K, x1 = 0.033 | 971.7 ± 0.8 | 0.5355 ± 0.0094
343.15 K, x1 = 0.0462 | 969.4 ± 0.8 | 0.5782 ± 0.01
343.15 K, x1 = 0.114 | 960.5 ± 0.8 | 0.7454 ± 0.013
343.15 K, x1 = 0.225 | 950.2 ± 0.8 | 0.8494 ± 0.014
343.15 K, x1 = 0.36 | 940.4 ± 0.8 | 0.8766 ± 0.015
343.15 K, x1 = 0.436 | 936 ± 0.8 | 0.8557 ± 0.014
343.15 K, x1 = 0.5 | 932.3 ± 0.7 | 0.8315 ± 0.014
343.15 K, x1 = 0.6 | 926.8 ± 0.7 | 0.786 ± 0.013
343.15 K, x1 = 0.7 | 921.8 ± 0.7 | 0.7335 ± 0.012
343.15 K, x1 = 0.8 | 917.4 ± 0.7 | 0.673 ± 0.011
343.15 K, x1 = 0.9 | 913.6 ± 0.7 | 0.6135 ± 0.01
343.15 K, x1 = 1 | 910.3 ± 0.7 | 0.539 ± 0.0094
